Measured values from US20170107257A1, “CYCLIC APELIN ANALOGS” (LANTHIOPEP B.V., priority 2014, published 2017).
Numbered stars: 1 amine (or outer) side, 2 acyl side, 3 side chain; on linkers, the order of the positions; unused ones are H or OH. Bridge positions count the residues as written; N and C are the ends. Square brackets hold non-standard residues; d marks the D form. Ends that are not written are not given here. Peptide text beside a SMILES is read from it. ξ: configuration not given here. ξAbu(3ξ-yl) = CC(C(N[*:1])C(=O)[*:2])[*:3]; pGlu = O=C1CC[C@@H](C(=O)O)N1; X1 = CC=C(N[*:1])C(=O)[*:2]; ξC = NC(CS)C(=O)O

Tests used:
hAPJ [1] = molecular target: T1, hAPJ (Homo sapiens, UniProt P35414); test: beta arrestin assay (DiscoverX); type: cell-based; details: for Ratio β-arrestin/cAMP: ratio of β-arrestin EC50 to cAMP EC50; for EC50: read-out: β-arrestin EC50
T1 sequence (P35414 1-380): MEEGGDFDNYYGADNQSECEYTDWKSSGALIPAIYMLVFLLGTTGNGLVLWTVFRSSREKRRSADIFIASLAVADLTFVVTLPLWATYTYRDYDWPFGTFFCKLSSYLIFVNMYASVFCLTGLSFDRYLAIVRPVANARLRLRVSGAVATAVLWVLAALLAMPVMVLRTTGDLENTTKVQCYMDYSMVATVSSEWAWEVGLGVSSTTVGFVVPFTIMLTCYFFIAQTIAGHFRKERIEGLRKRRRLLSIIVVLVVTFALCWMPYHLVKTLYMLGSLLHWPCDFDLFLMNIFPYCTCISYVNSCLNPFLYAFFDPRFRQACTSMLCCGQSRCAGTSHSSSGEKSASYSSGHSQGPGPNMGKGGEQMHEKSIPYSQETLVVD
Protocol: (§1) (Me)lan apelin variants were tested with cAMP and beta arrestin assays from the company DiscoverX.

[2] = Stability of apelin analogs in rat plasma; type: in vitro ADME; details: rat, plasma; for half-life at 0.1 mg/ml: pH 7.4
Protocol: Stability of apelin analogs in rat plasma. […] Samples were quenched by acidifying to final concentration of 5% TFA. Samples were analyzed on HPLC. Peak heights were plotted as relative to the initial peak heights.

hAPJ [3] = molecular target: T1, hAPJ; test: cAMP assay (DiscoverX); type: cell-based
Protocol: as §1

hAPJ [4] = molecular target: T1, hAPJ; test: hAPJ receptor internalization assay (APJ-GFP translocation, HEK293); type: cell-based; design: expressed in transfected cells; host or cells: HEK293, adenoviral transduction (Ad-GFP-hAPJ); details: 500 nM max, read-out: Relative EC50 (nM), hAPJ internalisation
Protocol: HEK293 cells are seeded 24 hours prior to experiment at 50% confluence in 2×F75 flasks. The next morning, cells are trypsinized, vortexed for 60 seconds and passed through a 40 micron mesh filter. Cells are resuspended at a density of 300,000 cells/ml in OptiMEM+2% FBS, and Ad-GFP-hAPJ virus is added at an MOI of 1 PFU/cell. Cells are vortexed and dispensed into 96 well clear bottom, black dishes at a concentration of 10,000 cells/well. Cells are maintained at room temperature for 30 minutes to allow cell attachment to the dish prior to Incubation overnight at 37° C. in a 5% CO2 incubator. Next morning, apelin analogs are added in a concentration response curve (500 nM max). APJ-GFP translocation is observed and documented on Olympus FV con-focal microscope.

| Ratio β-arrestin/cAMP (hAPJ [1]) | half-life at 0.1 mg/ml [2] | EC50 (hAPJ [3]) | EC50 (hAPJ [1]) | Compound | other results |
| --- | --- | --- | --- | --- | --- |
| 200 |  |  |  | CC(C)C[C@H](NC(=O)[C@H](CCCNC(=N)N)NC(=O)[C@@H]1CCCN1C(=O)[C@H](CCCNC(=N)N)NC(=O)[C@@H]1CCC(=O)N1)C(=O)NC1CSCC(C(=O)N2CCC[C@H]2C(=O)N[C@@H](Cc2ccccc2)C(=O)O)NC(=O)[C@@H]2CCCN2C(=O)CNC(=O)[C@H](CCCCN)NC(=O)[C@H](Cc2c[nH]cn2)NC1=O (single isomer, unassigned) [pEApeM9S II, pERPRLLanHKGPLanPF] |  |
| 50 | > 24 h |  |  | CSCC[C@@H]1NC(=O)[C@@H]2CCCN2C(=O)CNC(=O)[C@H](CCCCN)NC(=O)[C@H](Cc2c[nH]cn2)NC(=O)C(NC(=O)[C@H](CC(C)C)NC(=O)[C@H](CCCNC(=N)N)NC(=O)[C@@H]2CCCN2C(=O)[C@H](CCCNC(=N)N)NC(=O)[C@@H]2CCC(=O)N2)CSCC(C(=O)N2CCC[C@H]2C(=O)N[C@@H](Cc2ccccc2)C(=O)O)NC1=O (single isomer, unassigned) [pEApeM27S I, pERPRLLanHKGPMLanPF] |  |
|  |  |  |  | CSCC[C@@H]1NC(=O)[C@@H]2CCCN2C(=O)CNC(=O)C(NC(=O)[C@H](Cc2c[nH]cn2)NC(=O)[C@H](C)NC(=O)[C@H](CC(C)C)NC(=O)[C@H](CCCNC(=N)N)NC(=O)[C@@H]2CCCN2C(=O)[C@H](CCCNC(=N)N)NC(=O)[C@@H](N)CCC(N)=O)CSCC(C(=O)N[C@@H](Cc2ccccc2)C(=O)O)NC1=O (some centres unmarked) [ApeT8cS] | activity in Example 8 (hAPJ [3]): significant activity |
| 0.75 |  | 80 nM | 60 nM | CSCC[C@H](NC(=O)[C@@H]1CCCN1C(=O)CNC(=O)C1CSC(C)C(NC(=O)[C@H](CC(C)C)NC(=O)[C@H](CCCNC(=N)N)NC(=O)[C@@H]2CCCN2C(=O)[C@H](CCCNC(=N)N)NC(=O)[C@@H]2CCC(=O)N2)C(=O)N[C@@H](Cc2c[nH]cn2)C(=O)N[C@@H](CCCCN)C(=O)N1)C(=O)N1CCC[C@H]1C(=O)N[C@@H](Cc1ccccc1)C(N)=O (some centres unmarked) [amidated pEApeM6, pERPRLmeLanHKmeLanGPMPF-NH2] ([pGlu]RPRL[ξAbu(3ξ-yl)]HK[ξC]GPMPF-NH2; thioether 6-9) |  |
| 167 | 2 h | 17 nM | 2840 nM | CSCC[C@H](NC(=O)[C@@H]1CCCN1C(=O)CNC(=O)[C@H](CCCCN)NC(=O)C1CSC(C)C(NC(=O)[C@@H]2CCCN2C(=O)[C@H](CCCNC(=N)N)NC(=O)[C@@H]2CCC(=O)N2)C(=O)N[C@@H](CCCNC(=N)N)C(=O)N[C@@H](CC(C)C)C(=O)N[C@@H](C)C(=O)N1)C(=O)N1CCC[C@H]1C(=O)N[C@@H](Cc1ccccc1)C(=O)O (some centres unmarked) [pEApeI3c, pERPmeLanRLAmeLanKGPMPF] ([pGlu]RP[ξAbu(3ξ-yl)]RLA[ξC]KGPMPF-OH; thioether 4-8; C-terminus assumed) |  |
| 87 | 2 h | 12.8 nM | 1110 nM | CSCC[C@H](NC(=O)[C@@H]1CCCN1C(=O)CNC(=O)[C@H](CCCCN)NC(=O)C1CSC(C)C(NC(=O)[C@H](CCCNC(=N)N)NC(=O)[C@@H]2CCCN2C(=O)[C@H](CCCNC(=N)N)NC(=O)[C@@H]2CCC(=O)N2)C(=O)N[C@@H](CC(C)C)C(=O)N[C@@H](C)C(=O)N1)C(=O)N1CCC[C@H]1C(=O)N[C@@H](Cc1ccccc1)C(=O)O (some centres unmarked) [pEApeI4a, pERPRmeLanLAmeLanKGPMPF] ([pGlu]RPR[ξAbu(3ξ-yl)]LA[ξC]KGPMPF-OH; thioether 5-8; C-terminus assumed) |  |
|  | 3 h |  |  | CSCC[C@H](NC(=O)[C@@H]1CCCN1C(=O)[C@@H]1CSCC(NC(=O)[C@H](CC(C)C)NC(=O)[C@H](CCCNC(=N)N)NC(=O)[C@@H]2CCCN2C(=O)[C@H](CCCNC(=N)N)NC(=O)[C@@H]2CCC(=O)N2)C(=O)N[C@@H](C)C(=O)N[C@@H](Cc2c[nH]cn2)C(=O)N[C@@H](CCCCN)C(=O)N1)C(=O)N1CCC[C@H]1C(=O)N[C@@H](Cc1ccccc1)C(=O)O (some centres unmarked) [pEApeI5cS I, pERPRLLanAHKLanPMPF] |  |
| 0.16 | 24 h | 190 nM | 32 nM | CC=C(NC(=O)[C@H](CCSC)NC(=O)[C@@H]1CCCN1C(=O)C1CSC(C)C(NC(=O)[C@H](CC(C)C)NC(=O)[C@H](CCCNC(=N)N)NC(=O)[C@@H]2CCCN2C(=O)[C@H](CCCNC(=N)N)NC(=O)[C@@H]2CCC(=O)N2)C(=O)N[C@@H](Cc2c[nH]cn2)C(=O)N[C@@H](CCCCN)C(=O)N1)C(=O)N[C@@H](Cc1ccccc1)C(=O)O (some centres unmarked) [pEApeM5T, pERPRLmeLanHKmeLanPMDhbF] ([pGlu]RPRL[ξAbu(3ξ-yl)]HK[ξC]PM[X1]F-OH; thioether 6-9; C-terminus assumed) | stability in rat plasma [2]: enhanced stability |
|  | 8 h |  |  | CSCC[C@H](NC(=O)[C@@H]1CCCN1C(=O)CNC(=O)[C@@H]1CSC(C)C(NC(=O)[C@H](CC(C)C)NC(=O)[C@H](CCCNC(=N)N)NC(=O)[C@@H]2CCCN2C(=O)[C@H](CCCNC(=N)N)NC(=O)[C@@H]2CCC(=O)N2)C(=O)N[C@@H](Cc2c[nH]cn2)C(=O)N[C@@H](CCCCN)C(=O)N1)C(=O)N1CCC[C@H]1C(=O)N[C@@H](Cc1ccccc1)C(=O)O (some centres unmarked) [pEApeM6, pERPRLmeLanHKmeLanGPMPF] ([pGlu]RPRL[ξAbu(3ξ-yl)]HKCGPMPF-OH; thioether 6-9) |  |
| 3 |  | 125 nM | 385 nM | CSCC[C@H](NC(=O)[C@@H]1CCCN1C(=O)CNC(=O)C1CSC(C)C(NC(=O)[C@H](CC(C)C)NC(=O)[C@H](CCCNC(=N)N)NC(=O)[C@@H]2CCCN2C(=O)[C@H](CCCNC(=N)N)NC(=O)[C@@H]2CCC(=O)N2)C(=O)N[C@@H](Cc2c[nH]cn2)C(=O)N[C@@H](CCCCN)C(=O)N1)C(=O)N1CCC[C@H]1C(=O)O (some centres unmarked) [pEApeM6deltaF, pERPRLmeLanHKmeLanGPMP] ([pGlu]RPRL[ξAbu(3ξ-yl)]HK[ξC]GPMP-OH; thioether 6-9; C-terminus assumed) | EC50 (hAPJ [4]): > 1000 nM |
|  | 15 h |  |  | CSCC[C@H](NC(=O)[C@@H]1CCCN1C(=O)[C@@H]1CSC(C)C(NC(=O)[C@H](CC(C)C)NC(=O)[C@H](CCCNC(=N)N)NC(=O)[C@@H]2CCCN2C(=O)[C@H](CCCNC(=N)N)NC(=O)[C@@H]2CCC(=O)N2)C(=O)N[C@@H](Cc2c[nH]cn2)C(=O)N[C@@H](CCCCN)C(=O)NCC(=O)N1)C(=O)N1CCC[C@H]1C(=O)N[C@@H](Cc1ccccc1)C(=O)O (some centres unmarked) [pEApeM7, pERPRLmeLanHKGmeLanPMPF] ([pGlu]RPRL[ξAbu(3ξ-yl)]HKGCPMPF-OH; thioether 6-10) |  |
|  | 3 h |  |  | CSCC[C@H](NC(=O)[C@@H]1CSCC(NC(=O)[C@H](CC(C)C)NC(=O)[C@H](CCCNC(=N)N)NC(=O)[C@@H]2CCCN2C(=O)[C@H](CCCNC(=N)N)NC(=O)[C@@H]2CCC(=O)N2)C(=O)N[C@@H](Cc2c[nH]cn2)C(=O)N[C@@H](CCCCN)C(=O)NCC(=O)N2CCC[C@H]2C(=O)N1)C(=O)N1CCC[C@H]1C(=O)N[C@@H](Cc1ccccc1)C(=O)O (some centres unmarked) [pEApeM12S, pERPRLLanHKGPLanMPF] |  |
|  | > 24 h |  |  | CSCC[C@@H]1NC(=O)[C@@H]2CCCN2C(=O)CNC(=O)[C@H](CCCCN)NC(=O)[C@H](Cc2c[nH]cn2)NC(=O)C(NC(=O)[C@H](CC(C)C)NC(=O)[C@H](CCCNC(=N)N)NC(=O)[C@@H]2CCCN2C(=O)[C@H](CCCNC(=N)N)NC(=O)[C@@H]2CCC(=O)N2)CSC[C@@H](C(=O)N[C@@H](Cc2ccccc2)C(=O)O)NC1=O (some centres unmarked) [pEApeM26S I, pERPRLLanHKGPMLanF] |  |
| 122 | 8 h | 2 nM | 245 nM | CSCC[C@@H]1NC(=O)[C@@H]2CCCN2C(=O)CNC(=O)C(NC(=O)[C@H](Cc2c[nH]cn2)NC(=O)[C@H](C)NC(=O)[C@H](CC(C)C)NC(=O)[C@H](CCCNC(=N)N)NC(=O)[C@@H]2CCCN2C(=O)[C@H](CCCNC(=N)N)NC(=O)[C@@H]2CCC(=O)N2)CSCC(C(=O)N[C@@H](Cc2ccccc2)C(=O)O)NC1=O (some centres unmarked) [pEApeT8cS] |  |
|  | 7 h |  |  | CSCC[C@H](NC(=O)[C@@H]1CCCN1C(=O)CNC(=O)[C@@H]1CSC(C)C(NC(=O)[C@H](CC(C)C)NC(=O)[C@H](CCCNC(=N)N)NC(=O)[C@@H]2CCCN2C(=O)[C@H](CCCNC(=N)N)NC(=O)[C@@H]2CCC(=O)N2)C(=O)N[C@@H](Cc2c[nH]cn2)C(=O)N[C@@H](CCCCN)C(=O)N1)C(=O)N1CCC[C@H]1C(=O)N[C@@H](C)C(=O)O (some centres unmarked) [pERPRLmeLanHKmeLanGPMPA] ([pGlu]RPRL[ξAbu(3ξ-yl)]HKCGPMPA-OH; thioether 6-9) |  |
|  | 10 h |  |  | CSCC[C@H](NC(=O)[C@@H]1CCCN1C(=O)CNC(=O)[C@@H]1CSC(C)C(NC(=O)[C@H](CC(C)C)NC(=O)[C@H](CCCNC(=N)N)NC(=O)[C@@H]2CCCN2C(=O)[C@H](CCCNC(=N)N)NC(=O)[C@@H]2CCC(=O)N2)C(=O)N[C@@H](Cc2c[nH]cn2)C(=O)N[C@@H](CCCCN)C(=O)N1)C(=O)N[C@H](C(=O)N[C@@H](Cc1ccccc1)C(=O)O)C(C)C (some centres unmarked) [pERPRLmeLanHKmeLanGPMVF] ([pGlu]RPRL[ξAbu(3ξ-yl)]HKCGPMVF-OH; thioether 6-9) |  |
| 20 |  | 0.6 nM | 12 nM | QRPRLAHKGPMPF [reference compound] |  |
